This is an account of results in patent US8304557B2, “Fused heterocycle derivatives and use thereof” (Takeda Pharmaceutical Company Limited, priority 2007, dated 2012).

A value given as a limit tells only on which side of the number the result lay.

The target in assay [1] is T1, PDGFRβ intracellular domain protein (Homo sapiens, UniProt P09619).
T1 construct: 125 ng/ml of PDGFRβ intracellular domain protein (UPSTATE); purchased UPSTATE
The assay can be described thus: PDGFRβ kinase inhibitory activity (AlphaScreen). The class given is biochemical. To be noted: ATP 50 μM solution; 25° C., 60 min; read-out: IC50 value, PDGFRβ kinase inhibition. As for the experimental part:
A test compound dissolved in dimethyl sulfoxide (DMSO) was diluted with a buffer (50 mM Tris-HCl (pH 7.5), 5 mM MgCl2, 5 mM MnCl2, 2 mM dithiothreitol, 0.01% Tween-20). […] The reaction solution was allowed to stand at 25° C. for 16 hr, and the wells were counted using a plate reader Fusion™ (PerkinElmer). The kinase inhibitory rate (%) of the test compound was calculated by the following formula: Inhibitory rate(%)=(1−(count of test compound−blank)÷(control−blank))×100
(§1) The count of the solution reacted without addition of the compound was used as a “control”, and the count of the solution without the compound and ATP was used as a “blank”.

Assay [2] deals with Human umbilical vein vascular endothelial cells (HUVEC). In words: Vascular endothelial cell growth inhibitory test (VEGF-stimulated HUVEC, WST-8). The assay is classed as cell-based. To be noted: 120 h, VEGF 120 ng/mL solution added, 5 days of culture, read-out: IC50 value, vascular endothelial cell growth inhibition. How it is done: To be specific, HUVEC was suspended in a vascular endothelial cell medium containing the aforementioned 3% bovine fetal serum and plated in a 96 well flat bottom plate by 50 μL (3000 cells) each well. After culture overnight, various concentrations of the test substance and 120 ng/mL of vascular endothelial growth factor (VEGF) were dissolved in a vascular endothelial cell medium containing 3% bovine fetal serum and added to each well by 50 μL. […] The absorbance at 450 nm was measured by a microtiter plate reader and the cell growth inhibitory activity was determined.
On the technique in general: Tetrazolium dyes change colour on reduction, which living cells bring about.

The target in assay [3] is T2, Platelet-derived growth factor receptor α (PDGFRα) intracellular domain protein (Homo sapiens, UniProt P16234).
T2 construct: 125 ng/ml of PDGFα intracellular domain protein (UPSTATE); purchased UPSTATE
In words: PDGFRα kinase inhibitory activity (AlphaScreen). The assay is classed as biochemical. To be noted: ATP 25 μM solution; 25° C., 30 min; read-out: IC50 value, PDGFRα kinase inhibition. As for the experimental part:
A test compound dissolved in dimethyl sulfoxide (DMSO) was diluted with a buffer (50 mM Tris-HCl (pH 7.5), 5 mM MgCl2, 5 mM MnCl2, 2 mM dithiothreitol, 0.01% Tween-20). […] The reaction solution was allowed to stand at 25° C. for 16 hrs, and the wells were counted using a plate reader Fusion™ (PerkinElmer). The kinase inhibitory rate (%) of the test compound was calculated by the following formula: Inhibitory rate(%)=(1−(count of test compound−blank)÷(control−blank))×100
as §1
(In general: Alpha assays give light when donor and acceptor beads are brought close together.)

For assay [4], the target named is VEGFR2 intracellular domain protein (Homo sapiens, UniProt P35968). In words: VEGF receptor 2 kinase inhibitory activity (AlphaScreen). To be noted: read-out: The inhibitory rate of the compounds at 1 μM (VEGF receptor 2 kinase).
Chain of VEGFR2 intracellular domain protein (P35968 786-1356 limits assumed): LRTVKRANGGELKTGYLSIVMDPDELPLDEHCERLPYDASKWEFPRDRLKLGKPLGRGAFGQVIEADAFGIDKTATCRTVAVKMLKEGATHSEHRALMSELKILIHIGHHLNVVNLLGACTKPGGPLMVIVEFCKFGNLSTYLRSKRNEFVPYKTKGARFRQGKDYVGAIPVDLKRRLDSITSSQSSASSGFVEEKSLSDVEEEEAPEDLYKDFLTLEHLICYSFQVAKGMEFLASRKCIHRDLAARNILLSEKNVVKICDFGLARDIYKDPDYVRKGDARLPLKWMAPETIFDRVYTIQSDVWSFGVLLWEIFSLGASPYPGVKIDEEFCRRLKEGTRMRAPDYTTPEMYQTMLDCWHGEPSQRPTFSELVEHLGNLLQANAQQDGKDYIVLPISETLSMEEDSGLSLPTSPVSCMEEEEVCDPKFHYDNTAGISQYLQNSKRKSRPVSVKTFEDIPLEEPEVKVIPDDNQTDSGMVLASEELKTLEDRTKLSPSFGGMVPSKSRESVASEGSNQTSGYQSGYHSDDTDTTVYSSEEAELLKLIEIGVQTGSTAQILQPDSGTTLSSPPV
Procedure: Human vascular endothelial growth factor receptor 2 (hereinafter to be referred to as VEGFR2) gene was cloned by PCR using cDNA Libraries Human Placenta (Clontech) as a template.
The PCR reaction was conducted using a KOD-plus kit (TOYOBO). […] Furthermore, using BAC-TO-BAC Baculovirus Expression System (Invitrogen), virus stock BAC-VEGFR2 of recombinant baculovirus was prepared.
SF-21 cells were sown at 1×10^6 cells/mL to Sf-900II SEM medium (1 L, Invitrogen) containing 10% fetal bovine serum (trace), 50 mg/L Gentamicin (Invitrogen) and 0.1% Pluronic F-68 (Invitrogen), and shaking culture was performed using a 2 L volume Erlenmeyer flask at 27° C., 100 rpm. After culturing for 24 hrs, recombinant baculovirus BAC-VEGFR2 (13.4 mL) was added to the mixture, and the mixture was further cultured for 3 days. The culture medium was centrifuged at 2,000 rpm for 5 min to give virus-infected cells. The infected cells were washed with a phosphate buffered saline (Invitrogen), centrifuged under the same conditions, and the cells were preserved at −80° C. The cryopreserved cells were thawed in ice, suspended in buffer A (50 mM Tris buffer (30 mL, pH 7.4) containing 20% glycerol, 0.15 M NaCl) supplemented with Complete Protease Inhibitor (Boehringer), and ruptured 3 times with a Polytron homogenizer (Kinematica) at 20,000 rpm for 30 sec. The ruptured medium was clarified by centrifugation at 40,000 rpm for 30 min and filtered with a 0.45 μm filter. The filtrate was passed through a column packed with Anti-FLAG M2 Affinity Gel (4 mL, Sigma) at a flow rate of about 0.5 mL/min. The column was washed with buffer A, and eluted with buffer A containing 100 μg/mL of FLAG peptide. The eluate was concentrated with Vivaspin 20 (Vivascience) having a molecular weight cut off of 30K. The buffer of this concentrate was exchanged using NAP™ 25 column (Amersham Bioscience) equilibrated with buffer A. The fractions containing intracellular domain protein of VEGFR2 were collected, glycerol was added to the final concentration of 50% and cryopreserved at −80° C.
A test compound dissolved in DMSO was diluted with a buffer (50 mM Tris-HCl (pH 7.5), 5 mM MgCl2, 5 mM MnCl2, 2 mM dithiothreitol, 0.01% Tween-20). To this compound solution (5 μL) was added a buffer (10 μL) containing 50 ng/mL of VEGFR2 intracellular domain protein and 250 ng/mL of biotin labeled polypeptide biotinyl-poly-Glu:Tyr (4:1, CIS bio International). […] The reaction solution was allowed to stand at 25° C. for 16 hrs, and the wells were counted using a plate reader Fusion™ (PerkinElmer). The kinase inhibitory rate (%) of the test compound was calculated by the following formula: Inhibitory rate(%)=(1−(count of test compound−blank)÷(control−blank))×100

T1 sequence (P09619 554-1106 limits assumed): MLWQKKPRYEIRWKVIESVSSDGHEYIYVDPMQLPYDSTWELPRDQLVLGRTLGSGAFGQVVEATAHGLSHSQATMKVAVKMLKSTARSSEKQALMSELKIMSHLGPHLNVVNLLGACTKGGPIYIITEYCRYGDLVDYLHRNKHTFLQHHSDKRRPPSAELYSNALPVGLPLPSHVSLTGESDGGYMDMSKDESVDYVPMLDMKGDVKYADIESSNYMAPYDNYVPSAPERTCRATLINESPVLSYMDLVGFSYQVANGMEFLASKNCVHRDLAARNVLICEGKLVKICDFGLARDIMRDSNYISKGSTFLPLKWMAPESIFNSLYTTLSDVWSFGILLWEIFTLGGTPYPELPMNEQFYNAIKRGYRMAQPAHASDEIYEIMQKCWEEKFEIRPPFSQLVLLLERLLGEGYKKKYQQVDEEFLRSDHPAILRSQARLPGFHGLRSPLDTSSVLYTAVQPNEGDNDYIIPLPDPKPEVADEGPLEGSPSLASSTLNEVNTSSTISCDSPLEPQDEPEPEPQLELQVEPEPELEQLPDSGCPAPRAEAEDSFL
T2 sequence (P16234 550-1089 limits assumed): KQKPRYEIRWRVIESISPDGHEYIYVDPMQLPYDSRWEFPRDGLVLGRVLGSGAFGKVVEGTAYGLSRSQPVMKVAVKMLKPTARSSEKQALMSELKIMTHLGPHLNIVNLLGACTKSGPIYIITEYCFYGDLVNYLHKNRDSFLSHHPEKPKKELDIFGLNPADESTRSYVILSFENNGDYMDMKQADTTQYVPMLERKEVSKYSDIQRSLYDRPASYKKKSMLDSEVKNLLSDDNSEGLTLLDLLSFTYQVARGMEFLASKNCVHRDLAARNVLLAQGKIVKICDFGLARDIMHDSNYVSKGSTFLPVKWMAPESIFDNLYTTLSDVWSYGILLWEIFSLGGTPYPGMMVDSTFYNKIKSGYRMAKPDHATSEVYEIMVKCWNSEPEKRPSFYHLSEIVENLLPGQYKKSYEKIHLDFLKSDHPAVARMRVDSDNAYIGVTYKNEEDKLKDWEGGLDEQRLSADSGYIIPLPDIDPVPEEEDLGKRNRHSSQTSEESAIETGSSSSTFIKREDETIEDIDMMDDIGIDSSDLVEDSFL

For orientation: IC50 means the concentration at which inhibition is half-maximal. As for `Cc1cccnc1C(=O)Nc1cccc(Oc2ccc3nc(NC(=O)C4CC4)cn3c2)c1` [Example 7-4, N-[3-({2-[(cyclopropylcarbonyl)amino]imidazo[1,2-a]pyridin-6-yl}oxy)phenyl]-3-methylpyridine-2-carboxamide], the IC50 in assay [1], in assay [2] and in assay [3] was at most 500 nM throughout. In addition, the inhibition at 1 µM in assay [4] was at least 90%.
On to `Cc1cc(C(=O)Nc2cc(Oc3ccc4nc(NC(=O)C5CC5)cn4c3)ccc2F)n(C)n1` [Example 9-2, N-[5-({2-[(cyclopropylcarbonyl)amino]imidazo[1,2-a]pyridin-6-yl}oxy)-2-fluorophenyl]-1,3-dimethyl-1H-pyrazole-5-carboxamide], for which the IC50 in assay [1], in assay [2] and in assay [3] was at most 500 nM throughout. Also, the inhibition at 1 µM in assay [4] is at least 90%.
For the compound `CCNC(=O)Nc1cn2cc(Oc3ccc(F)c(NC(=O)c4cc(C)nn4C)c3)ccc2n1` [Example 10, N-{5-[(2-{[(ethylamino)carbonyl]amino}imidazo[1,2-a]pyridin-6-yl)oxy]-2-fluorophenyl}-1,3-dimethyl-1H-pyrazole-5-carboxamide], the IC50 in assay [1], in assay [2] and in assay [3] was at most 500 nM each time. Also, the inhibition at 1 µM in assay [4] is at least 90%.
For the compound `Cc1cc(C(=O)Nc2cc(Oc3ccc4nc(NC(=O)C5CC5)nn4c3)ccc2C)n(C)n1` [Example 17-2, N-[5-({2-[(cyclopropylcarbonyl)amino][1,2,4]triazolo[1,5-a]pyridin-6-yl}oxy)-2-methylphenyl]-1,3-dimethyl-1H-pyrazole-5-carboxamide], the IC50 in assay [1], in assay [2] and in assay [3] was at most 500 nM each time.
Turning to `Cc1nc(C(=O)Nc2cccc(Oc3ccc4nc(NC(=O)C5CC5)nn4c3)c2)c(C(F)(F)F)o1` [Example 22, N-[3-({2-[(cyclopropylcarbonyl)amino][1,2,4]triazolo[1,5-a]pyridin-6-yl}oxy)phenyl]-2-methyl-5-(trifluoromethyl)-1,3-oxazole-4-carboxamide], the IC50 in assay [1], in assay [2] and in assay [3] was at most 500 nM each time. Further, the inhibition at 1 µM in assay [4] is at least 90%.
With `Cc1cc(C(=O)Nc2cc(Oc3ccc4nc(NC(=O)C5CC5)nn4c3)ccc2F)n(C)n1` [Example 23-2, N-[5-({2-[(cyclopropylcarbonyl)amino][1,2,4]triazolo[1,5-a]pyridin-6-yl}oxy)-2-fluorophenyl]-1,3-dimethyl-1H-pyrazole-5-carboxamide], the IC50 in assay [2] was at most 500 nM. Also, the inhibition at 1 µM in assay [4] was at least 90%.
As to `CCn1nc(C)cc1C(=O)Nc1cc(Oc2ccc3nc(NC(=O)C4CC4)nn3c2)ccc1F` [Example 72, N-[5-({2-[(cyclopropylcarbonyl)amino][1,2,4]triazolo[1,5-a]pyridin-6-yl}oxy)-2-fluorophenyl]-1-ethyl-3-methyl-1H-pyrazole-5-carboxamide], the IC50 in assay [1], in assay [2] and in assay [3] was at most 500 nM throughout. Moreover, the inhibition at 1 µM in assay [4] is at least 90%.
Consider `Cc1cc(C(=O)Nc2cccc(Oc3ccc4nc(NC(=O)C5CC5)sc4c3)c2)n(C)n1` [Example 97-2, N-[3-({2-[(cyclopropylcarbonyl)amino]-1,3-benzothiazol-6-yl}oxy)phenyl]-1,3-dimethyl-1H-pyrazole-5-carboxamide], for which the half-inhibitory concentration (IC50) in assay [2] and in assay [3] was at most 500 nM throughout. Besides, the inhibition at 1 µM in assay [4] is at least 90%.
Turning to `Cc1cc(C(=O)Nc2cccc(Oc3ccc4nc(NC(=O)C5CC5)sc4n3)c2)n(C)n1` [Example 99, N-[3-({2-[(cyclopropylcarbonyl)amino][1,3]thiazolo[5,4-b]pyridin-5-yl}oxy)phenyl]-1,3-dimethyl-1H-pyrazole-5-carboxamide], the IC50 in assay [2] and in assay [3] was at most 500 nM throughout. In addition, in assay [4], the inhibition at 1 µM was at least 90%.
